The values below come from US12383533B2 (Frost Biologic, Inc., priority 2014, dated 2025).

For one experiment, the system named is porcine neuronal tubulin. Description: Tubulin Polymerization Assay. It counts as biochemical. Particulars: porcine tubulin 2.0 mg/ml, 37° C., fluorescence; read-out: IC50 (tubulin polymerization, from Vmax). From the text: Tubulin Polymerization Assay
The Tubulin Polymerization Assay uses porcine neuronal tubulin and measurements are based on fluorescence enhancement due to the incorporation of a fluorescent reporter into microtubules as polymerization occurs. The assay generates a polymerization curve representing the three phases of microtubule formation (nucleation, growth and equilibrium). IC50 values for tested compounds can be generated from the observed polymerization curves.
Procedure: All compounds dilutions (in DMSO) were prepared prior to the following steps. A Molecular Devices M2 plate reader was set to 37° C. Once the internal temperature of the plate reader reached 37° C. a 96 well plate (Corning Costar, at. #3686) was placed in the fluorimeter and allowed to warm to 37° C. for 30 minutes. A total of 10 mg of porcine tubulin was resuspended in […] of Polymerization Buffer [Buffer 1 (80 mM PIPES pH 6.9, 2.0 mM MgCl2, 0.5 mM EGTA, 1.0 mM GTP and 10 μM fluorescent reporter) supplemented with 20% glycerol] to generate a 2.0 mg/ml tubulin stock and this was kept on ice. The 50× compound stocks in 100% DMSO were spotted 1 μl/well in duplicate into the wells of the 96-well plate at 37° C. and allowed to re-warm for 5 minutes at 37° C. During this incubation the 2.0 mg/ml tubulin stock was placed in a disposable plastic trough and allowed to warm briefly at room temperature. To initiate the reaction, 50 μl/well of 2.0 mg/ml tubulin in Polymerization Buffer was added to each well using a multi-channel pipettor and the fluorescence measurements were started immediately.
The maximal velocity (Vmax) of tubulin polymerization was determined using linear regression of the averaged fluorescence data at each time point using GraphPad Prism 5.0 software. The Vmax determinations for each compound at each concentration were then normalized to reactions that contained DMSO (2% final concentration) but no test compounds. This converted the data to % Activity, which refers to the percent of the Vmax of an uninhibited reaction. The concentration response curves were then plotted as the % Activity versus the Log 10 of the compound concentration in micromolar and fit by non-linear regression to a 4-parameter sigmoidal dose-response equation using GraphPad Prism 5.0 software to determine the IC50 for each compound.

The next experiment concerns PC3 cells. In words: Cell Viability Assay (ATPlite 1step), PC3. It counts as cell-based. The settings on record: Homo sapiens, PC-3, 72 hours; for percent inhibition of cell viability at 4 µM: PC3, 4 uM compound, read-out: Cell Viability % inhibition PC3 (4 uM Cpd); for percent inhibition of cell viability at 20 µM: PC3, 20 uM compound, read-out: Cell Viability % inhibition PC3 (20 uM Cpd). In a few lines: (§1)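 Cells seeded at 1000/well, grown 24 h at 37 °C/5% CO2, then exposed to compounds (DMSO stock diluted in media) for 72 h; viability read by ATPlite 1step luminescence. A2780 and PC3 in RPMI, MCF-7 in K-12F, each with 10% FBS.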
A general note: ATP-based viability assays read luminescence as a measure of living cells.

For another experiment, the system named is A2780 cells. Description: Cell Viability Assay (ATPlite 1step), A2780. It counts as cell-based. The settings on record: Homo sapiens, 72 hours; for percent inhibition of cell viability at 4 µM: A2780, 4 uM compound, read-out: Cell Viability % inhibition A2780 (4 uM Cpd); for percent inhibition of cell viability at 20 µM: A2780, 20 uM compound, read-out: Cell Viability % inhibition A2780 (20 uM Cpd). In a few lines:
as §1

The next experiment deals with MCF-7 cells. Description: Cell Viability Assay (ATPlite 1step), MCF-7. Particulars: Homo sapiens, MCF7, 72 hours; for percent inhibition of cell viability at 4 µM: MCF-7, 4 uM compound, read-out: Cell Viability % inhibition MCF-7 (4 uM Cpd); for percent inhibition of cell viability at 20 µM: MCF-7, 20 uM compound, read-out: Cell Viability % inhibition MCF-7 (20 uM Cpd). The experiment is classed as cell-based. On the procedure:
Cell Viability Assay Protocol
Cells were trypsinized, counted, and re-seeded into a 384-well tissue culture plate at 1000 cells per well in […] media. Cells were incubated at 37° C. in an atmosphere of 5% CO2 for 24 hours. Experimental compounds, initially dissolved in DMSO and diluted further in media were added to the wells and incubated for 72 hours. Cell viability was measured using the ATPlite 1step Luminescence Detection Assay system (Perkin Elmer) as described in the Assay kit instructions.
Cell Culture Lines and Media: (1) A2780 cells were cultured in RPMI media with 10% FBS and 1% antibiotics. Cells were typically split every 3-5 days at a 1:10 dilution; (2) PC3 cells were cultured in RPMI media with 10% FBS and 1% antibiotics. Cells were typically split every 3-5 days at a 1:4 dilution; (3) MCF-7 cells were grown in K-12F media with 10% FBS and 1% antibiotics. Cells were typically split every 3-5 days at a 1:10 dilution.

With `O=C(Nc1ccc(-c2ccccc2)cn1)c1cncnc1` [Compound 1], the IC50 (as a rule, the concentration that gives 50% inhibition) in the experiment on porcine neuronal tubulin came out at 1400 nM. The percent inhibition of cell viability at 4 µM was 59.1% in the experiment with PC3 cells, 84.2% in the experiment with A2780 cells and 46.1% with MCF-7 cells. In addition, the percent inhibition of cell viability at 20 µM is 72.2% in the experiment with PC3 cells, 93.6% in the experiment on A2780 cells and 68.4% with MCF-7 cells.
Take `Cc1ncc(C(=O)Nc2ccc(-c3cccc(S(=O)(=O)C4CC4)c3)cn2)cn1` [Compound 63, N-{5-[3-(cyclopropylsulfonyl)phenyl]pyridin-2-yl}-2-methylpyrimidine-5-carboxamide]: the concentration for half-maximal inhibition (IC50) in the experiment on porcine neuronal tubulin is 240 nM. Also, the results for the percent inhibition of cell viability at 4 µM in the experiment on PC3 cells, in the experiment with A2780 cells and with MCF-7 cells were 61.4%, 85.6% and 59.1%, respectively. Besides, the percent inhibition of cell viability at 20 µM in the experiment with PC3 cells worked out at 67.6%; in the experiment with A2780 cells, 88%; in the experiment with MCF-7 cells, 65.1%.
For `Cc1ncc(C(=O)Nc2ccc(-c3cccc(NC4CC4)c3)cn2)cn1` [Compound 31, N-{5-[3-(cyclopropylamino)phenyl]pyridin-2-yl}-2-methylpyrimidine-5-carboxamide], the IC50 with porcine neuronal tubulin amounted to 320 nM. In addition, in the experiment with PC3 cells, the percent inhibition of cell viability at 4 µM was found to be 51.8% and the percent inhibition of cell viability at 20 µM was 43.7%. In the experiment with A2780 cells, the percent inhibition of cell viability at 4 µM worked out at 70.9% and the percent inhibition of cell viability at 20 µM is 71.2%.
On to `Cc1ncc(C(=O)Nc2ncc(-c3cccc(S(=O)(=O)C4CC4)c3)cc2F)cn1` [Compound 70, N-{5-[3-(cyclopropylsulfonyl)phenyl]-3-fluoropyridin-2-yl}-2-methylpyrimidine-5-carboxamide], for which the half-maximal inhibitory concentration (IC50) in the experiment on porcine neuronal tubulin stood at 10 nM. The percent inhibition of cell viability at 4 µM was 58.4% in the experiment on PC3 cells, 86.3% in the experiment on A2780 cells and 61.1% in the experiment on MCF-7 cells. In addition, the percent inhibition of cell viability at 20 µM is 65% in the experiment with PC3 cells, 87.8% in the experiment on A2780 cells and 66.1% in the experiment on MCF-7 cells.
Turning to `Cc1ncc(C(=O)Nc2ccc(-c3cccc(OC4CC4)c3)cn2)cn1` [Compound 27, N-{5-[3-(cyclopropyloxy)phenyl]pyridin-2-yl}-2-methylpyrimidine-5-carboxamide], the 50% inhibitory concentration (IC50) with porcine neuronal tubulin worked out at 680 nM. Further, the percent inhibition of cell viability at 4 µM in the experiment with PC3 cells came out at 58.3%; in the experiment with A2780 cells, 77.3%. Also, the values for the percent inhibition of cell viability at 20 µM with PC3 cells and in the experiment with A2780 cells were 69.6% and 77.4%, respectively.
Turning to `CC[C@]1(O)C[C@H]2CN(CCc3c([nH]c4ccccc34)[C@@](C(=O)OC)(c3cc4c(cc3OC)N(C=O)[C@H]3[C@@](O)(C(=O)OC)[C@H](OC(C)=O)[C@]5(CC)C=CCN6CC[C@]43[C@@H]65)C2)C1` [Vincristine, reference compound], the IC50 in the experiment with porcine neuronal tubulin came to 680 nM.
Take `Cc1ccc(C(=O)Nc2ccc(-c3cccc(C4COC4)c3)cn2)cn1` [Compound 44, 6-methyl-N-{5-[3-(oxetan-3-yl)phenyl]pyridin-2-yl}pyridine-3-carboxamide]: the IC50 in the experiment on porcine neuronal tubulin stood at 300 nM. For the same compound, in the experiment on PC3 cells, the percent inhibition of cell viability at 4 µM came to 81.8% and the percent inhibition of cell viability at 20 µM stood at 84.6%. In the experiment on A2780 cells, the percent inhibition of cell viability at 4 µM is 86.5% and the percent inhibition of cell viability at 20 µM was found to be 86.1%.
On to `COc1cccc(-c2ccc(NC(=O)c3cncnc3)nc2)c1` [Compound 18, N-[5-(3-methoxyphenyl)pyridin-2-yl]pyrimidine-5-carboxamide], for which the percent inhibition of cell viability at 4 µM came to 66.2% in the experiment with PC3 cells, 88.5% in the experiment with A2780 cells and 58.8% in the experiment on MCF-7 cells. The figures for the percent inhibition of cell viability at 20 µM with PC3 cells, in the experiment with A2780 cells and in the experiment with MCF-7 cells were 76.5%, 91.5% and 75.4%, respectively.
Take `Cc1ncc(C(=O)Nc2ccc(-c3cccc(C4CC4)c3)cn2)cn1` [Compound 23, N-[5-(3-cyclopropylphenyl)pyridin-2-yl]-2-methylpyrimidine-5-carboxamide]: the IC50 in the experiment with porcine neuronal tubulin stood at 890 nM. For the same compound, the percent inhibition of cell viability at 4 µM in the experiment on PC3 cells amounted to 53.7%; in the experiment with A2780 cells, 71.5%. Also, the percent inhibition of cell viability at 20 µM was 66.2% in the experiment with PC3 cells and 80.3% in the experiment on A2780 cells.
Take `CC[C@]1(O)C[C@@H]2CN(CCc3c([nH]c4ccccc34)[C@@](C(=O)OC)(c3cc4c(cc3OC)N(C)[C@H]3[C@@](O)(C(=O)OC)[C@H](OC(C)=O)[C@]5(CC)C=CCN6CC[C@]43[C@@H]65)C2)C1` [Vinblastine, reference compound]: the IC50 in the experiment with porcine neuronal tubulin is 200 nM.
Turning to `O=C(Nc1ccc(-c2cccs2)cn1)c1cccnc1` [Compound 11, N-[5-(thiophen-2-yl)pyridin-2-yl]pyridine-3-carboxamide], the percent inhibition of cell viability at 4 µM was 70% in the experiment with PC3 cells, 85% with A2780 cells and 58.6% in the experiment with MCF-7 cells. Further, the percent inhibition of cell viability at 20 µM in the experiment on PC3 cells was 83.8%; in the experiment with A2780 cells it was 97.8%; with MCF-7 cells, 88.9%.
Consider `Cc1ncc(C(=O)Nc2ccc(-c3ccccc3)cn2)cn1` [Compound 8, 2-methyl-N-(5-phenylpyridin-2-yl)pyrimidine-5-carboxamide], for which the figures for the percent inhibition of cell viability at 4 µM in the experiment with PC3 cells, in the experiment on A2780 cells and in the experiment with MCF-7 cells were 71.6%, 89.8% and 68.7%, respectively. The percent inhibition of cell viability at 20 µM with PC3 cells was 71.7%; with A2780 cells, 90.8%; in the experiment with MCF-7 cells, 74.5%.
Turning to `Cc1ncc(C(=O)Nc2ccc(-c3cc(N4CCN(C)CC4)cc(S(=O)(=O)C4CC4)c3)cn2)cn1` [Compound 49, N-{5-[3-cyclopropylsulfonyl-5-(4-methylpiperazin-1-yl)phenyl]pyridin-2-yl}-2-methylpyrimidine-5-carboxamide], the percent inhibition of cell viability at 4 µM came out at 19.4% in the experiment on PC3 cells, 16.9% in the experiment on A2780 cells and 28.1% with MCF-7 cells. Also, the percent inhibition of cell viability at 20 µM came to 39.7% in the experiment with PC3 cells, 59.5% with A2780 cells and 48.3% in the experiment on MCF-7 cells.
On to `Cc1ncc(C(=O)Nc2ncc(-c3cccc(NC4CC4)c3)cc2F)cn1` [Compound 68, N-{5-[3-(cyclopropylamino)phenyl]-3-fluoropyridin-2-yl}-2-methylpyrimidine-5-carboxamide], for which the percent inhibition of cell viability at 4 µM with PC3 cells was 58.4%; in the experiment with A2780 cells, 87.1%; with MCF-7 cells, 54.3%. The percent inhibition of cell viability at 20 µM in the experiment with PC3 cells stood at 64.4%; in the experiment on A2780 cells, 89%; with MCF-7 cells it was 59.3%.
With `O=C(Nc1ccc(-c2ccccc2)cn1)c1cccnc1` [Compound 10, N-(5-phenylpyridin-2-yl)pyridine-3-carboxamide], the percent inhibition of cell viability at 4 µM came to 71.8% in the experiment with PC3 cells, 92.7% with A2780 cells and 61.4% in the experiment with MCF-7 cells. Also, the percent inhibition of cell viability at 20 µM in the experiment on PC3 cells came to 87.3%; with A2780 cells it was 95.2%; with MCF-7 cells it was 86.4%.
